Literature values as cited in US10463731B2, “Adjuvant combinations comprising alpha-galactosylceramide or iGb3, CD40 agonists and antigen” (IMMURX, INC., priority 2007, dated 2019).

Test system: tumors
Conditions: monotherapy, mice

In the case of `CCCCCCCCCCCCCCCCCCCCCCCCCC(=O)N[C@@H](CO[C@H]1O[C@H](CO)[C@H](O)[C@H](O)[C@H]1O)[C@H](O)[C@H](O)CCCCCCCCCCCCCC` [α-Gal-Cer, alpha-galactosylceramide], the “enhancement of immunity to tumors” value is given as “limited success”.
